Entries after “also recorded” stand apart in the source; their conditions may differ.
Test system: AGPPase (soluble and particulate isoforms)
Assay: AGPPase enzymatic assay (two-step spectrophotometric determination of G1P produced from ADPG)
Format: biochemical, barley (Hordeum vulgare), tomato (Lycopersicon sculentum)
Settings: for Km / affinity compared with ADP-glucose: Km of ADP-glucose relative to this substrate

Molecule	Hydrolysis / recognition as substrate by AGPPase	Inhibition of AGPPase	other results
O=C(O)[C@H](O)COP(=O)(O)O [3-phosphoglycerate]	do not hydrolyse	inhibited	–
Nc1ncnc2c1ncn2[C@@H]1O[C@H](COP(=O)(O)OP(=O)(O)O[C@H]2O[C@H](CO)[C@@H](O)[C@H](O)[C@@H]2O)[C@@H](O)[C@H]1O [ADP-mannose]	recognises	–	–
Nc1ncnc2c1ncn2[C@@H]1O[C@H](COP(=O)(O)OP(=O)(O)OC[C@H]2OC(O)[C@H](O)[C@@H]2O)[C@@H](O)[C@H]1O (some centres unmarked) [ADP-ribose]	–	–	Km / affinity compared with ADP-glucose: four of five times lower
Nc1ncnc2c1ncn2[C@@H]1O[C@H](COP(=O)(O)OP(=O)(O)O[C@H]2O[C@H](CO)[C@@H](O)[C@H](O)[C@H]2O)[C@@H](O)[C@H]1O [ADPG, ADPglucose]	catalyse the hydrolysis; also recorded: preferred substrates	–	Km (read-out: Michaelis-Menten constant (Km)): 500 µM
Nc1ncnc2c1ncn2[C@@H]1O[C@H](COP(=O)(O)OP(=O)(O)O)[C@@H](O)[C@H]1O [ADP]	–	inhibited	–
Nc1ncnc2c1ncn2[C@@H]1O[C@H](COP(=O)(O)O)[C@@H](O)[C@H]1O [AMP]	do not hydrolyse	inhibited	–
Nc1ncnc2c1ncn2[C@@H]1O[C@H](COP(=O)(O)OS(=O)(=O)O)[C@@H](O)[C@H]1O [APS, adenosine 5′phosphosulphate]	recognises; also recorded: catalyse the hydrolysis; also recorded: preferred substrates	–	Km / affinity compared with ADP-glucose: similar
Nc1ncnc2c1ncn2[C@@H]1O[C@H](COP(=O)(O)OP(=O)(O)OP(=O)(O)O)[C@@H](O)[C@H]1O [ATP]	–	inhibited	–
O=C[C@H](O)[C@@H](O)[C@H](O)[C@H](O)COP(=O)(O)O [G6P, glucose-6-phosphate]	do not hydrolyse	–	–
Nc1nc2c(ncn2[C@@H]2O[C@H](COP(=O)(O)OP(=O)(O)O[C@H]3O[C@H](CO)[C@@H](O)[C@H](O)[C@H]3O)[C@@H](O)[C@H]2O)c(=O)[nH]1 [GDP-glucose]	recognise	–	–
Nc1nc2c(ncn2[C@@H]2O[C@H](COP(=O)(O)OP(=O)(O)O[C@H]3O[C@H](CO)[C@@H](O)[C@H](O)[C@@H]3O)[C@@H](O)[C@H]2O)c(=O)[nH]1 [GDP-mannose]	recognises	–	–
Nc1ncnc2c1ncn2[C@@H]1O[C@H](COP(=O)(O)OS(=O)(=O)O)[C@@H](OP(=O)(O)O)[C@H]1O [PAPS, 3′-phosphoadenosine 5′-phosphosulphate]	recognises; also recorded: catalyse the hydrolysis	–	–
O=[N+]([O-])c1ccc(OP(=O)(O)Oc2ccc([N+](=O)[O-])cc2)cc1 [bis-PNPP, bis-paranitrophenylphosphate]	recognise	–	–
[O]=[Mo](=[O])([O-])[O-] [molybdate]	–	strongly inhibited	–
OCCS [β-mercaptoethanol]	–	–	Effect of typical phosphodiesterase inhibitors (reducing and chelating agents) on AGPPase activity: not affected
arsenate	–	strongly inhibited	–

Source: patent US7205150B2, “Transgenic plants over-expressing plant ADP-glucose pyrophosphatase” (Universidad Publica de Navarra, priority 2000, dated 2007)
